# Experimental data from patent US6172112A, “Retinoids and use thereof” (priority 1999, dated 2001).
# pIC50: −log10 of the molar value. “Also recorded” adds a separate entry of the source. Read-outs that look alike come from different tables or passages of the source.
# Assays:
# chick skin CRABP = target: T1, chick skin CRABP (Gallus gallus, UniProt A0A8V1AB82); assay: chick skin CRABP radioligand binding assay; conditions: [3H]-(all-E)-RA radioligand
# T1 sequence (A0A8V1AB82 88-225): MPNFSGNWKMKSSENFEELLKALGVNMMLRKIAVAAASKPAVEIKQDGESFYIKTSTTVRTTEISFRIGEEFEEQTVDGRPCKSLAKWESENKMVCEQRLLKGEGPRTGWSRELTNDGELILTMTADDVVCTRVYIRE
# HL-60 cells = assay: retinoid induction of differentiation of HL-60 cells (NBT); assay type: cell-based; conditions: Homo sapiens, HL-60, 96 h; 4-day induction of differentiation; read-out: ED50 (nM) HL-60
# Description: (§1) Human leukemia cell line HL-60 and NB4 were used for measuring the ability of retinoids to induce terminal differentiation. Both cell lines are predominantly promyelocytes and are induced by retinoic acid to mature to cells with many characteristics of mature granulocytes. The induction of this differentiation is the basis for assaying one of the biological activities of retinoic acid analogues. For the differentiation assay, HL-60 or NB4 cells were grown in nutrient medium with fetal bovine serum as detailed by Breitman (15).
# (§2) The percentage of cells that gained this marker was measured microscopically. The percentage of positive cells was then plotted as a function of the retinoid concentration to determine ED50 and ED30 values used in the formation of isoboles.
# NB4 cells [1] = assay: retinoid induction of differentiation of NB4 cells (NBT); assay type: cell-based, Human; conditions: for EC50: NB-4, 96 h, read-out: ED50 (nM) NB4; for EC30: read-out: ED30 NB4 cell differentiation
# Description: NB4 cells were obtained from Dr. Waxman after he received them from Dr. M. Lanotte. […] The cell were grown at 37° C. in a humidified atmosphere of 5% CO2 in air. Cell density was estimated on an electronic particle counter (Coulter electronic, Hialeah, Fla.) and cell viability with trypan bleu dye exclusion.
# as §1, §2
# mouse skin papilloma [2] = conditions: 45.9 nmol dose
# Description: The mouse skin antipapilloma assay measured the ED50 values for retinoid tumor inhibition on the dorsal skin of mice. The inhibition of mouse skin papilloma by retinoids was performed according to a modification of the procedure developed by Verma and Boutwell (14) as reported previously by Muccio et al. (8).
# The UAB30 retinoids were evaluated next for their activity in preventing the chemical induction of papillomas on mouse skin (14).
# mouse skin papilloma [3] = conditions: ref (8); cited from earlier work
# [4] = test system: acute promyelocytic leukemia (APL); conditions: patients with APL; cited from earlier work
# JMML cells = assay: inhibition of JMML spontaneous CFU-GM colony formation; conditions: Homo sapiens
# Description: Mononuclear cells were separated by density gradient centrifugation, washed, and frozen in aliquots. […] No growth factors or other exogenous stimuli were added to the cultures. UAB retinoids and retinoic acid isomers were dissolved in either 100% ethanol or DMSO. Appropriate dilutions were made, and controls using the respective ethanol or DMSO concentration were set up in parallel. Varying doses of retinoids were added only once, 24 hours after initiation of the soft agar assays, by pipetting the retinoid solution on top of the soft agar and allowing the solution to enter the agar and interact with the cells by diffusion. The cultures were incubated for 14 days at 37° C. in a humidified atmosphere with 5% CO2.
# RARα = target: T2, RARα (Homo sapiens, UniProt P10276); conditions: CV-1 cells
# T2 sequence (P10276 1-462): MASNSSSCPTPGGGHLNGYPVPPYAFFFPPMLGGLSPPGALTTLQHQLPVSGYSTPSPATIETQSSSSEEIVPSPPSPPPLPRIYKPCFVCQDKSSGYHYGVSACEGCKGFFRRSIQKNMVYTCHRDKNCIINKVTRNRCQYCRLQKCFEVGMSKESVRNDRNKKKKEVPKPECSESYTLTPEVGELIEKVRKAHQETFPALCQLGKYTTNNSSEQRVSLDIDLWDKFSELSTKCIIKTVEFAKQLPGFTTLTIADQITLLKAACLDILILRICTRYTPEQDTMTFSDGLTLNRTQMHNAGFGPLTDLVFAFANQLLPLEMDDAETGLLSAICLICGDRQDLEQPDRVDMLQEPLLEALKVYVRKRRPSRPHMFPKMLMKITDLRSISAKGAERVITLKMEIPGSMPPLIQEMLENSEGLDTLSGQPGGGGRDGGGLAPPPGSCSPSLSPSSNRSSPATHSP
# Description: The antagonistic effects of UAB30 retinoids on the transcription of RARα were determined in CV-1 cells. The methods are nearly identical to those used to perform transcriptional assays. […] After 24 hours, cells were harvested and the transcriptional effects were measured relative CAT activity, after correction with β-gal activity for transfection efficiency. […] All experiments were performed in triplicate, and the data were averaged. […] These assays were performed in CV-1 cells with the RAR or RXR gene and the chloramphenicol acetyltransferase (CAT) reporter gene containing TREpal with a thymidine kinase promoter [(TREpal)2 -tk-CAT]. Twenty-four hours after transfection, cells were treated with a single dose of retinoid and the cell extracts were assayed for b-galactosidase and CAT activity. The antagonistic effects of UAB30 retinoids on the transcription of RAR-α were also determined in CV-1 cells. The methods are nearly identical to those used to perform transcriptional assays. These studies utilized the CAT reporter gene [(TREpal)2 -tk-CAT]. […] After 24 hours, cells were harvested and the transcriptional effects were measured in relative CAT activity, after correction with β-galactosidase activity for transfection efficiency. […] Experiments were performed in triplicate and the data were averaged.
# NB4 cells [5] = conditions: alone; previously shown by Breitman and coworkers; cited from earlier work
# [6] = test system: MNU-induced mammary cancers; assay: efficacy on MNU-induced mammary cancers; assay type: in vivo, Sprague-Dawley rats; conditions: 200 mg/kg diet
# NB4 cells [7] = assay: retinoid metabolism in NB4 cells; assay type: in vitro ADME
# in vivo toxicity = conditions: preliminary data
# [8] = body weight in MNU mammary cancer study
# [9] = read-out: normalized percent inhibition of CFU-GM colony growth, patient J83 (%)
# [10] = read-out: normalized percent inhibition of CFU-GM colony growth, patient J84 (%)
structure (smiles),measurement,setting,value
"CC1=C(/C=C/C(C)=C/C=C/C(C)=C/C(=O)O)C(C)(C)CCC1 [(all-E)-RA, all-trans-retinoic acid, reference compound]",pIC50,chick skin CRABP,6.22
same,EC50,HL-60 cells,120 nM
same,EC50,"NB4 cells [1]; Homo sapiens, 4-day induction of differentiation",610 nM
same,EC30,"NB4 cells [1]; in combination with 9-cis-UAB30 (1:10), day 3",0.05 µM
same,EC30,NB4 cells [1]; in combination with all-trans-UAB30 (1:10),2.8 µM
same,EC30,"NB4 cells [1]; retinoid alone, 3 days",0.81 µM
same,prevention of papilloma (tumor) formation,mouse skin papilloma [2],95%
same,ED50 skin antipapilloma assay,mouse skin papilloma [3],3.0 nmol
same,complete remission rate,[4],90%
same,inhibition at 0.1 µM,"JMML cells; read-out: normalized percent inhibition of CFU-GM colony growth, patient J43 (%), 10^-7 M",74%
same,inhibition at 0.1 µM,"JMML cells; read-out: normalized percent inhibition of CFU-GM colony growth, patient J83 (%), 10^-7 M",88%
same,inhibition at 0.01 µM,"JMML cells; read-out: normalized percent inhibition of CFU-GM colony growth, patient J84 (%), 10^-8 M",33%
same,inhibition at 1 µM,"JMML cells; read-out: percent inhibition of CFU-GM colony growth (not normalized), 10^-6 M, J43 patient cells",85%
same,inhibition at 1 µM,"JMML cells; read-out: percent inhibition of CFU-GM colony growth (not normalized), 10^-6 M, J83 patient cells",78%
same,inhibition at 1 µM,"JMML cells; read-out: percent inhibition of CFU-GM colony growth (not normalized), 10^-6 M, J84 patient cells",61%
CCCCCCCOc1cc2c(cc1/C(C)=C/c1ccc(C(=O)O)cc1)C(C)(C)CCS2(=O)=O [Ro-41-5253],antagonism of (all-E)-RA induced RARα transcription,RARα,two-fold more active; also recorded: exhibited antagonism at each concentration of (all-E)-RA
"CC1=C(/C=C/C(C)=C/C=C/C(C)=C/C(=O)Nc2ccc(O)cc2)C(C)(C)CCC1 [4-HPR, 4-hydroxyphenylretinamide]",NB4 cell differentiation,NB4 cells [5],does not induce NB4 cells to differentiate
"CC(=C/C=C/C(C)=C/C(=O)O)/C=C1\CCCc2ccccc21 [(9Z)-UAB30, (2E,4E,6E,8E)-8-(3',4'-Dihydro-1'(2'H)-naphthalen-1'-ylidene)3,7-dimethyl-2,4,6-octatrienoic acid]",EC50,HL-60 cells,8000 nM
same,EC30,"NB4 cells [1]; Homo sapiens, NB-4, 72 h",> 10000 µM
same,EC50,NB4 cells [1]; Homo sapiens,10000 nM
same,NB4 cell differentiation,NB4 cells [1]; retinoid alone,no effect
same,growth of MNU-induced mammary cancers,[6],inhibited the growth of the MNU-induced mammary cancers
same,average mammary tumor weight/rat,[6]; 26 days post MNU,0.05 grams
same,average mammary tumor weight/rat,[6]; 33 days post MNU,0.05 grams
same,average mammary tumor weight/rat,[6]; 40 days post MNU,0.10 grams
same,average mammary tumor weight/rat,[6]; 47 days post MNU,0.30 grams
same,average mammary tumor weight/rat,[6]; 54 days post MNU,0.45 grams
same,average mammary tumor weight/rat,[6]; 61 days post MNU,0.55 grams
same,average mammary tumor weight/rat,[6]; 68 days post MNU,0.55 grams
same,average mammary tumor weight/rat,[6]; 75 days post MNU,0.55 grams
same,average mammary tumor weight/rat,[6]; 82 days post MNU,0.70 grams
same,average mammary tumor weight/rat,[6]; 89 days post MNU,0.90 grams
same,average mammary tumor weight/rat,[6]; 96 days post MNU,1.00 grams
same,average mammary tumor weight/rat,[6]; 103 days post MNU,1.35 grams
same,average mammary tumor weight/rat,[6]; 110 days post MNU,1.75 grams
same,average mammary tumor weight/rat,[6]; 117 days post MNU,2.00 grams
same,average mammary tumor weight/rat,[6]; 124 days post MNU,2.20 grams
same,average mammary tumor weight/rat,[6]; 131 days post MNU,2.35 grams
same,metabolism / metabolic stability,NB4 cells [7],metabolically stable for 5 days
same,toxicity,in vivo toxicity,much less toxic than 9-cis-retinoic acid
same,overall body growth,[8]; 200 mg/kg diet,no obvious effect
same,average body weight/rat,"[8]; 43 days of age, 200 mg/kg diet from day 53",133 grams
same,average body weight/rat,"[8]; 57 days of age, 200 mg/kg diet",158 grams
same,average body weight/rat,"[8]; 64 days of age, 200 mg/kg diet",174 grams
same,average body weight/rat,"[8]; 71 days of age, 200 mg/kg diet",188 grams
same,average body weight/rat,"[8]; 78 days of age, 200 mg/kg diet",197 grams
same,average body weight/rat,"[8]; 85 days of age, 200 mg/kg diet",203 grams
same,average body weight/rat,"[8]; 92 days of age, 200 mg/kg diet",210 grams
same,average body weight/rat,"[8]; 99 days of age, 200 mg/kg diet",211 grams
same,average body weight/rat,"[8]; 106 days of age, 200 mg/kg diet",215 grams
same,average body weight/rat,"[8]; 113 days of age, 200 mg/kg diet",216 grams
same,average body weight/rat,"[8]; 120 days of age, 200 mg/kg diet",218 grams
same,average body weight/rat,"[8]; 127 days of age, 200 mg/kg diet",223 grams
same,average body weight/rat,"[8]; 134 days of age, 200 mg/kg diet",227 grams
same,average body weight/rat,"[8]; 141 days of age, 200 mg/kg diet",236 grams
same,average body weight/rat,"[8]; 149 days of age, 200 mg/kg diet",234 grams
same,average body weight/rat,"[8]; 155 days of age, 200 mg/kg diet",236 grams
same,average body weight/rat,"[8]; 162 days of age, 200 mg/kg diet",238 grams
same,average body weight/rat,"[8]; 169 days of age, 200 mg/kg diet",242 grams
same,average body weight/rat,"[8]; 176 days of age, 200 mg/kg diet",243 grams
same,average body weight/rat,"[8]; 183 days of age, 200 mg/kg diet",244 grams
same,inhibition at 0.1 µM,JMML cells; [9],76%
same,inhibition at 1 µM,JMML cells; [9],79%
same,inhibition at 0.01 µM,JMML cells; [10],3%
same,inhibition at 0.1 µM,JMML cells; [10],44%
same,inhibition at 1 µM,JMML cells; [10],39%
